# US11058688B2, “Imidazopiperazine inhibitors of transcription activating proteins” (Board of Regents, The University of Texas System, priority 2018, dated 2021)
# Key:
# BRD4(49-170) bromodomain = BRD4(49-170) bromodomain (Homo sapiens (Human), UniProt O60885); experiment: BRD4 AlphaScreen Assay; conditions: binding to biotin-H4(1-21) Ac-K5/8/12/16 peptide
# Experimental: (§1) Specific binding of the CBP or BRD4 bromodomain to the acetylated peptide derived from the H4 histone substrate (tetra acetylated H4(1-21) Ac-K5/8/12/16) was measured in absence or presence of inhibitors.
# (§2) The standard dose response curves were fitted by Genedata Screener software using the variable-slope model: Signal=Signalnegative control+(SignalDMSO control−Signalnegative control)/(1+(IC50/Dose)^Hill slope).
# (§3) Only Signal and Dose in the equation were treated as known values.
# [1] = target: GST-CBP(1081-1197) bromodomain (Homo sapiens (Human), UniProt Q92793); experiment: CBP AlphaScreen Assay; conditions: binding to biotin-H4(1-21) Ac-K5/8/12/16 peptide
# Sequence of GST-CBP(1081-1197) bromodomain (Q92793 1081-1197): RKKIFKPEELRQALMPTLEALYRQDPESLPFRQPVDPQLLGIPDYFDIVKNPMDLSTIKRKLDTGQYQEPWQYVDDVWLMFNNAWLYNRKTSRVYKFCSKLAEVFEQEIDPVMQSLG
# Experimental: as §1, §2, §3
IC50 (BRD4(49-170) bromodomain),IC50 [1],Compound
> 10000 nM,47 nM,"CC(=O)N1CCn2c(C3CC3)nc(-c3ccc4c(c3)c(-c3cnn(C)c3)nn4C)c2C1 [Example 1, 1-(3-cyclopropyl-1-(1-methyl-3-(1-methyl-1H-pyrazol-4-yl)-1H-indazol-5-yl)-5,6-dihydroimidazo[1,5-a]pyrazin-7(8H)-yl)ethan-1-one]"
8900 nM,3 nM,"CNC(=O)N1CCn2c(C3CC3)nc(-c3ccnc4cc(-c5cnn(C)c5)c(OC(F)(F)F)cc34)c2C1 [Example 2, 3-cyclopropyl-N-methyl-1-(7-(1-methyl-1H-pyrazol-4-yl)-6-(trifluoromethoxy)quinolin-4-yl)-5,6-dihydroimidazo[1,5-a]pyrazine-7(8H)-carboxamide]"
> 10000 nM,5 nM,"CNC(=O)N1CCn2c(C3CC3)nc(N3CCCc4cc(-c5cnn(C)c5)c(C(F)F)cc43)c2C1 [Example 3, 3-cyclopropyl-1-(7-(difluoromethyl)-6-(1-methyl-1H-pyrazol-4-yl)-3,4-dihydroquinolin-1(2H)-yl)-N-methyl-5,6-dihydroimidazo[1,5-a]pyrazine-7(8H)-carboxamide]"
8210 nM,24 nM,"CNC(=O)N1CCn2c(C3CCOC3)nc(-c3ccc4c(c3)c(-c3cnn(C)c3)nn4C)c2C1 (stereo not shown) [Example 6, N-Methyl-1-(1-methyl-3-(1-methyl-1H-pyrazol-4-yl)-1H-indazol-5-yl)-3-(tetrahydrofuran-3-yl)-5,6-dihydroimidazo[1,5-a]pyrazine-7(8H)-carboxamide]"
> 10000 nM,115 nM,"CNC(=O)N1CCn2c(C3CN(C)C3)nc(-c3ccc4c(c3)c(-c3cnn(C)c3)nn4C)c2C1 [Example 8, N-Methyl-1-(1-methyl-3-(1-methyl-1H-pyrazol-4-yl)-1H-indazol-5-yl)-3-(1-methylazetidin-3-yl)-5,6-dihydroimidazo[1,5-a]pyrazine-7(8H)-carboxamide]"
> 10000 nM,63 nM,"CNC(=O)N1CCn2c(C3CN(C(C)=O)C3)nc(-c3ccc4c(c3)c(-c3cnn(C)c3)nn4C)c2C1 [Example 9, 3-(1-Acetylazetidin-3-yl)-N-methyl-1-(1-methyl-3-(1-methyl-1H-pyrazol-4-yl)-1H-indazol-5-yl)-5,6-dihydroimidazo[1,5-a]pyrazine-7(8H)-carboxamide]"
> 10000 nM,197 nM,"CC(=O)N1CCn2cnc(-c3ccc4c(c3)c(-c3cnn(C)c3)nn4C)c2C1 [Example 10, 1-(1-(1-Methyl-3-(1-methyl-1H-pyrazol-4-yl)-1H-indazol-5-yl)-5,6-dihydroimidazo[1,5-a]pyrazin-7(8H)-yl)ethanone]"
> 10000 nM,26 nM,"CNC(=O)N1CCn2cnc(-c3ccc4c(c3)c(-c3cnn(C)c3)nn4C)c2C1 [Example 11, N-Methyl-1-(1-methyl-3-(1-methyl-1H-pyrazol-4-yl)-1H-indazol-5-yl)-5,6-dihydroimidazo[1,5-a]pyrazine-7(8H)-carboxamide]"
> 10000 nM,1380 nM,"CC(=O)N1CCn2c(C3CN(C)C3)nc(-c3ccc4c(c3)c(-c3cnn(C)c3)nn4C)c2C1 [Example 13, 1-(1-(1-Methyl-3-(1-methyl-1H-pyrazol-4-yl)-1H-indazol-5-yl)-3-(1-methylazetidin-3-yl)-5,6-dihydroimidazo[1,5-a]pyrazin-7(8H)-yl)ethanone]"
> 25000 nM,286 nM,"CC(=O)N1CCn2c(C3CCS(=O)(=O)CC3)nc(-c3ccc4c(c3)c(-c3cnn(C)c3)nn4C)c2C1 [Example 14, 1-[3-(1,1-Dioxothian-4-yl)-1-[1-methyl-3-(1-methylpyrazol-4-yl)indazol-5-yl]-6,8-dihydro-5H-imidazo[1,5-a]pyrazin-7-yl]ethanone]"
21900 nM,46 nM,"CNC(=O)N1CCn2c(C3CCS(=O)(=O)CC3)nc(-c3ccc4c(c3)c(-c3cnn(C)c3)nn4C)c2C1 [Example 15, 3-(1,1-Dioxothian-4-yl)-N-methyl-1-[1-methyl-3-(1-methylpyrazol-4-yl)indazol-5-yl]-6,8-dihydro-5H-imidazo[1,5-a]pyrazine-7-carboxamide]"
> 25000 nM,392 nM,"CC(=O)N1CCn2c(N3CCOCC3)nc(-c3ccc4c(c3)c(-c3cnn(C)c3)nn4C)c2C1 [Example 16, 1-(1-(1-Methyl-3-(1-methyl-1H-pyrazol-4-yl)-1H-indazol-5-yl)-3-morpho-lino-5,6-dihydroimidazo[1,5-a]pyrazin-7(8H)-yl)ethanone]"
5090 nM,1 nM,"CNC(=O)c1ccc(-c2cc3cccc(-c4nc(C5CC5)n5c4CN(C(=O)NC)CC5)c3cn2)cn1 [Example 17, 3-Cyclopropyl-N-methyl-1-(3-(6-(methylcarbamoyl)pyridin-3-yl)isoquinolin-8-yl)-5,6-dihydroimidazo[1,5-a]pyrazine-7(8H)-carboxamide]"
> 25000 nM,50 nM,"CNC(=O)N1CCn2c(C3CC3)nc(-c3cccc4cc(N5CCOCC5)ncc34)c2C1 [Example 18, 3-cyclopropyl-N-methyl-1-(3-morpholinoisoquinolin-8-yl)-5,6-dihydroimidazo[1,5-a]pyrazine-7(8H)-carboxamide]"
> 25000 nM,5 nM,"CNC(=O)N1CCn2c(C3CC3)nc(-c3cccc4nc(-c5cnn(C)c5)c(C#N)cc34)c2C1 [Example 19, 1-(3-Cyano-2-(1-methyl-1H-pyrazol-4-yl)quinolin-5-yl)-3-cyclopropyl-N-methyl-5,6-dihydroimidazo[1,5-a]pyrazine-7(8H)-carboxamide]"
25000 nM,18 nM,"CNC(=O)N1CCn2c(C3CC(F)(F)C3)nc(-c3cccc4nc(-c5cnn(C)c5)c(C(F)(F)F)cc34)c2C1 [Example 20, 3-(3,3-Difluorocyclobutyl)-N-methyl-1-(2-(1-methyl-1H-pyrazol-4-yl)-3-(trifluoromethyl)quinolin-5-yl)-5,6-dihydroimidazo[1,5-a]pyrazine-7(8H)-carboxamide]"
> 25000 nM,20 nM,"CNC(=O)N1CCn2c(C3CC3)nc(-c3cccc4cc(C5CCOCC5)ncc34)c2C1 [Example 21, 3-Cyclopropyl-N-methyl-1-(3-(tetrahydro-2H-pyran-4-yl)isoquinolin-8-yl)-5,6-dihydroimidazo[1,5-a]pyrazine-7(8H)-carboxamide]"
7060 nM,3 nM,"CNC(=O)N1CCn2c(C3CC3)nc(-c3c(F)ccc4cc(-c5cnc(C)s5)ncc34)c2C1 [Example 22, 3-Cyclopropyl-1-(7-fluoro-3-(2-methylthiazol-5-yl)isoquinolin-8-yl)-N-methyl-5,6-dihydroimidazo[1,5-a]pyrazine-7(8H)-carboxamide]"
3850 nM,1 nM,"CNC(=O)N1CCn2c(C3CC3)nc(-c3cccc4cc(-c5cnc(C)s5)ncc34)c2C1 [Example 23, 3-Cyclopropyl-N-methyl-1-(3-(2-methylthiazol-5-yl)isoquinolin-8-yl)-5,6-dihydroimidazo[1,5-a]pyrazine-7(8H)-carboxamide]"
9110 nM,6 nM,"CNC(=O)N1CCn2c(C3CC3)nc(-c3cccc4nc(N5CCOCC5)c(C#N)cc34)c2C1 [Example 24, 1-(3-Cyano-2-morpholinoquinolin-5-yl)-3-cyclopropyl-N-methyl-5,6-dihydroimidazo[1,5-a]pyrazine-7(8H)-carboxamide]"
15900 nM,57 nM,"CC(=O)N1CCn2c(C3CC3)nc(-c3ccc4c(c(-c5cnn(C)c5)nn4C)c3F)c2C1 [Example 25, 1-(3-cyclopropyl-1-(4-fluoro-1-methyl-3-(1-methyl-1H-pyrazol-4-yl)-1H-indazol-5-yl)-5,6-dihydroimidazo[1,5-a]pyrazin-7(8H)-yl)ethan-1-one]"
> 25000 nM,181 nM,"CC(=O)N1CCn2c(C3CC3)nc(-c3cnc4c(c3)c(-c3cnn(C)c3)nn4C)c2C1 [Example 26, 1-(3-cyclopropyl-1-(1-methyl-3-(1-methyl-1H-pyrazol-4-yl)-1H-pyrazolo[3,4-b]pyridin-5-yl)-5,6-dihydroimidazo[1,5-a]pyrazin-7(8H)-yl)ethan-1-one]"
> 25000 nM,1220 nM,"CC(=O)N1CCn2c(C3CC3)nc(-c3ccc4nn(C)c(-c5cnn(C)c5)c4c3F)c2C1 [Example 27, 1-(3-Cyclopropyl-1-(4-fluoro-2-methyl-3-(1-methyl-1H-pyrazol-4-yl)-2H-indazol-5-yl)-5,6-dihydroimidazo[1,5-a]pyrazin-7(8H)-yl)ethan-1-one]"
18600 nM,33 nM,"CC(=O)N1CCn2c(C3CC3)nc(-c3cc4c(-c5cnn(C)c5)nn(C)c4cc3F)c2C1 [Example 28, 1-(3-Cyclopropyl-1-(6-fluoro-1-methyl-3-(1-methyl-1H-pyrazol-4-yl)-1H-indazol-5-yl)-5,6-dihydroimidazo[1,5-a]pyrazin-7(8H)-yl)ethan-1-one]"
> 25000 nM,324 nM,"CC(=O)N1CCn2c(C3CC3)nc(-c3ccnc4c3cc(-c3cnn(C)c3)n4C)c2C1 [Example 29, 1-(3-Cyclopropyl-1-(1-methyl-2-(1-methyl-1H-pyrazol-4-yl)-1H-pyrrolo[2,3-b]pyridin-4-yl)-5,6-dihydroimidazo[1,5-a]pyrazin-7(8H)-yl)ethan-1-one]"

Compound,IC50 (BRD4(49-170) bromodomain),IC50 [1]
"COC(=O)N1CCn2c(C3CCOC3)nc(-c3ccc4c(c3)c(-c3cnn(C)c3)nn4C)c2C1 (stereo not shown) [Example 5, Methyl 1-(1-methyl-3-(1-methyl-1H-pyrazol-4-yl)-1H-indazol-5-yl)-3-(tetrahydrofuran-3-yl)-5,6-dihydroimidazo[1,5-a]pyrazine-7(8H)-carboxylate]",13900 nM,–
"CC(=O)N1CCn2c(C3CN(C(C)=O)C3)nc(-c3ccc4c(c3)c(-c3cnn(C)c3)nn4C)c2C1 [Example 12, 1-(3-(7-Acetyl-1-(1-methyl-3-(1-methyl-1H-pyrazol-4-yl)-1H-indazol-5-yl)-5,6,7,8-tetrahydroimidazo[1,5-a]pyrazin-3-yl)azetidin-1-yl)ethan-1-one]",> 10000 nM,–
